“And” between values parts separate entries of the source, which are not always exact repeats. Identical values can stand only once.
How the values were obtained:
[1] = 37 °C
[2] = determination of pKa of the sulfonamide group by UV-VIS spectra at various pH; type: physicochemical; conditions: for f RSO2NH-, fraction of deprotonated sulfonamide: at pH 7.0, calculated from pKa; for pKa: calculated from spectra at various pH, 37 °C
[3] = target: T1, CAI (Homo sapiens, UniProt P00915); assay: fluorescent thermal shift assay (FTSA), CAI; type: binding; conditions: 37 °C; for ΔGintr CAI: converted from Kd_intr, independent of pH; for ΔGobs CAI: converted from Kd_obs, pH 7.0, FTSA
[4] = target: T2, CAIX (Homo sapiens, UniProt Q16790)
[5] = target: CAXIV (Homo sapiens, UniProt Q9ULX7); assay: fluorescent thermal shift assay (FTSA), CAXIV; type: binding; conditions: 37 °C; for ΔGintr CAXIV: converted from Kd_intr, independent of pH; for ΔGobs CAXIV: converted from Kd_obs, pH 7.0, FTSA
[6] = target: CAVI (Homo sapiens, UniProt P23280); assay: fluorescent thermal shift assay (FTSA), CAVI; type: binding; conditions: 37 °C; for ΔGintr CAVI: converted from Kd_intr, independent of pH; for ΔGobs CAVI: converted from Kd_obs, pH 7.0, FTSA
[7] = target: CAVA (Homo sapiens, UniProt P35218); assay: fluorescent thermal shift assay (FTSA), CAVA; type: binding; conditions: 37 °C; for ΔGintr CAVA: converted from Kd_intr, independent of pH; for ΔGobs CAVA: converted from Kd_obs, pH 7.0, FTSA
[8] = target: CAVB (Homo sapiens, UniProt Q9Y2D0); assay: fluorescent thermal shift assay (FTSA), CAVB; type: binding; conditions: 37 °C; for ΔGintr CAVB: converted from Kd_intr, independent of pH; for ΔGobs CAVB: converted from Kd_obs, pH 7.0, FTSA
[9] = target: T3, mimic-CAIX (mutant of CAII: A65S, N67Q, I91L, F130V, V134L, L203A) (Homo sapiens, UniProt P00918, A65S/F130V/I91L/L203A/N67Q/V134L); conditions: intrinsic, calculated using pKa_CAZn(II)H2O of CAII, 37 °C
[10] = target: CAIV (Homo sapiens, UniProt P22748); assay: fluorescent thermal shift assay (FTSA), CAIV; type: binding; conditions: 37 °C; for ΔGintr CAIV: converted from Kd_intr, independent of pH; for ΔGobs CAIV: converted from Kd_obs, pH 7.0, FTSA
[11] = target: T2, CAIX; assay: fluorescent thermal shift assay (FTSA), CAIX; type: binding; conditions: for ΔGobs CAIX: pH 7
[12] = target: T4, CAXII (Homo sapiens, UniProt O43570); conditions: for -TΔSintr CAXII / ΔHintr CAXII: intrinsic, 37 °C; for ΔHintr CAXII: independent of pH and buffer; for ΔHobs CAXII: observed, sodium phosphate buffer pH 7.0, 37 °C, ITC
[13] = target: T5, CAII (Homo sapiens, UniProt P00918); assay: fluorescent thermal shift assay (FTSA), CAII; type: binding; conditions: 37 °C; for ΔGintr CAII: converted from Kd_intr, independent of pH; for ΔGobs CAII: converted from Kd_obs, pH 7.0, FTSA
[14] = target: T3, mimic-CAIX (mutant of CAII: A65S, N67Q, I91L, F130V, V134L, L203A)
[15] = target: CAIII (Homo sapiens, UniProt P07451); assay: fluorescent thermal shift assay (FTSA), CAIII; type: binding; conditions: 37 °C; for ΔGintr CAIII: converted from Kd_intr, independent of pH; for ΔGobs CAIII: converted from Kd_obs, pH 7.0, FTSA
[16] = target: CAVII (Homo sapiens, UniProt P43166); assay: fluorescent thermal shift assay (FTSA), CAVII; type: binding; conditions: 37 °C; for ΔGobs CAVII: converted from Kd_obs, pH 7.0, FTSA; for ΔGintr CAVII: converted from Kd_intr, independent of pH
[17] = target: CAXIII (Homo sapiens, UniProt Q8N1Q1); assay: fluorescent thermal shift assay (FTSA), CAXIII; type: binding; conditions: 37 °C; for ΔGintr CAXIII: converted from Kd_intr, independent of pH; for ΔGobs CAXIII: converted from Kd_obs, pH 7.0, FTSA
[18] = solubility observed visually and in absorption spectra; type: physicochemical; parameters: key: low solubility, LS
[19] = target: T4, CAXII; assay: fluorescent thermal shift assay (FTSA), CAXII; type: binding; conditions: 37 °C; for ΔGintr CAXII: converted from Kd_intr, independent of pH; for ΔGobs CAXII: converted from Kd_obs, pH 7.0, FTSA
[20] = target: T1, CAI
[21] = test system: CAII; assay: fluorescent thermal shift assay (FTSA), CAII; type: binding, human; conditions: intrinsic
[22] = target: T5, CAII
[23] = intrinsic, 37 °C, independent of pH and buffer
[24] = observed, sodium phosphate buffer pH 7.0, 37 °C, ITC

CAVI, sequence (P23280 18-308): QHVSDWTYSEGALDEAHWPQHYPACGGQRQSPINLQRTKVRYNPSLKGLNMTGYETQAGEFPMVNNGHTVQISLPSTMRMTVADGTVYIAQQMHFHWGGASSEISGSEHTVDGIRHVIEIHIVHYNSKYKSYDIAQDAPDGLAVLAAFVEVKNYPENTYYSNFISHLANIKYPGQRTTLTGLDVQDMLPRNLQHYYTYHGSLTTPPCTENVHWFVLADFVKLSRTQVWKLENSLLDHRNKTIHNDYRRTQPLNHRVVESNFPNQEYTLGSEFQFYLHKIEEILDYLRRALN
T4 sequence (O43570 25-354): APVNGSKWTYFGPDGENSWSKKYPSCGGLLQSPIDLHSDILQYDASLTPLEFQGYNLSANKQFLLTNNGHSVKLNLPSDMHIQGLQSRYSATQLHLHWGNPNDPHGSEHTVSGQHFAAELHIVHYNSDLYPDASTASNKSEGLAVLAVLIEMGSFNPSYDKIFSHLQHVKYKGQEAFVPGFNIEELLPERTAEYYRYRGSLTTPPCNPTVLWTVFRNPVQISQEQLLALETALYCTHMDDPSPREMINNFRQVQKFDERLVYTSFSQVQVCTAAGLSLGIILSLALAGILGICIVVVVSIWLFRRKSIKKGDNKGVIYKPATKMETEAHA
CAIV, sequence (P22748 19-312): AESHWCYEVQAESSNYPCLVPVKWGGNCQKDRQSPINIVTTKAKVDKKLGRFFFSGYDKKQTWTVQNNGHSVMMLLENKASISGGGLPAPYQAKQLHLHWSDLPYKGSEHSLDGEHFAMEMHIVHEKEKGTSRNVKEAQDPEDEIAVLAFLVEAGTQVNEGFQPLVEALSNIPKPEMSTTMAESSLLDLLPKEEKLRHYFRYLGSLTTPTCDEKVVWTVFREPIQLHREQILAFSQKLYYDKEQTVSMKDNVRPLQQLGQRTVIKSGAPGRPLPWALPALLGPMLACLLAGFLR
CAVA, sequence (P35218 39-305): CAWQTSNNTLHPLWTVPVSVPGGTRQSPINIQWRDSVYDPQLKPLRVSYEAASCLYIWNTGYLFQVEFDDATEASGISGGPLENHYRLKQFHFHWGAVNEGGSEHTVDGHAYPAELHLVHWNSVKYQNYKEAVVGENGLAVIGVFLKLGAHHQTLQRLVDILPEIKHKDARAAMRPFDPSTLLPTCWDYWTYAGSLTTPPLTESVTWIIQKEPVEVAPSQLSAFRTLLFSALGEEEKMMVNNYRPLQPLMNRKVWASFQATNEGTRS
CAXIV, sequence (Q9ULX7 16-337): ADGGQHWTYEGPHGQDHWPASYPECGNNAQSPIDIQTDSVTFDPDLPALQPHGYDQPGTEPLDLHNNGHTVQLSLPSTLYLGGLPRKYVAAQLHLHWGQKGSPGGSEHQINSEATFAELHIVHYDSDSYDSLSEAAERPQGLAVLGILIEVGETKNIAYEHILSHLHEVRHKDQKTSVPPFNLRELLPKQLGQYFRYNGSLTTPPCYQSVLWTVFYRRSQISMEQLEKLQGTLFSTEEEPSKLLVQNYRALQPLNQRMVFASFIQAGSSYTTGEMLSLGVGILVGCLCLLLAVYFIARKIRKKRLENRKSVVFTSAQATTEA
CAVII, sequence (P43166 whole entry): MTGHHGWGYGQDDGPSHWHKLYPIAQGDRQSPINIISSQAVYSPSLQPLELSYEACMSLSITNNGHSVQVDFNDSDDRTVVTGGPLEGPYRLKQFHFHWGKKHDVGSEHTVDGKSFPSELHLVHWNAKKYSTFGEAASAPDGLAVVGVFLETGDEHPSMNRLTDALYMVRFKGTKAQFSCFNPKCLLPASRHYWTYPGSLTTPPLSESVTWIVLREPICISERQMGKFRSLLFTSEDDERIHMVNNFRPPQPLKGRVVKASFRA
T1 sequence (P00915 whole entry): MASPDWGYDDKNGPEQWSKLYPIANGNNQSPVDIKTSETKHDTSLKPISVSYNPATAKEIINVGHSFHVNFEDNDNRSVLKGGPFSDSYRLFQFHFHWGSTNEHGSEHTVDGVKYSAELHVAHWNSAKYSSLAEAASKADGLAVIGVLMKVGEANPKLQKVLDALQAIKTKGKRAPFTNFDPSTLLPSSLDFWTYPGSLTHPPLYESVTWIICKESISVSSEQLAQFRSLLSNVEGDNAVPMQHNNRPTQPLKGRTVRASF
CAIII, sequence (P07451 whole entry): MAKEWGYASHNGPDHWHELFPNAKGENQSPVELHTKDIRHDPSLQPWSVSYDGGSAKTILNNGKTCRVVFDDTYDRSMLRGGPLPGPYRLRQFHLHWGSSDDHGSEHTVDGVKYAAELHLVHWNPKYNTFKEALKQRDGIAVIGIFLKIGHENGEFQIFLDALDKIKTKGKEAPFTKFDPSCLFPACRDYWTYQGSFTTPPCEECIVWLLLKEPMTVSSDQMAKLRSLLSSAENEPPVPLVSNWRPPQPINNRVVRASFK
CAXIII, sequence (Q8N1Q1 whole entry): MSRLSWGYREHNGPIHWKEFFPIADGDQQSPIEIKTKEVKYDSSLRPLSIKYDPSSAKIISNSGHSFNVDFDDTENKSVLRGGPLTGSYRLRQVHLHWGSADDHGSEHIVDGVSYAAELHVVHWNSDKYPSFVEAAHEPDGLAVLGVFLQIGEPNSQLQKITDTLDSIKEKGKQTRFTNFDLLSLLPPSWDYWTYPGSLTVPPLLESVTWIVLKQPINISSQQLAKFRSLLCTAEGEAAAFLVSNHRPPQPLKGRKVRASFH
CAVB, sequence (Q9Y2D0 34-317): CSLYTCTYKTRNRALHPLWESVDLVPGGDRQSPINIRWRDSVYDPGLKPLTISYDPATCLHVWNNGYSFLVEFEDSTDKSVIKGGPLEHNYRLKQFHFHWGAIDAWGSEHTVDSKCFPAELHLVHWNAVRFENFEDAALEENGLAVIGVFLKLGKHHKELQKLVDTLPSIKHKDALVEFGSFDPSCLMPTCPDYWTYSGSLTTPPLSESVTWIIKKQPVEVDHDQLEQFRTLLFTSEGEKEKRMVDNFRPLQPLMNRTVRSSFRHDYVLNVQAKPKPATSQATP

SMILES	Δp_RSO2NH2H, protonation enthalpy of sulfonamide group [1] [kcal/mol]	f RSO2NH-, fraction of deprotonated sulfonamide [2]	pKa [2]	ΔGintr CAI [3] [kcal/mol]	ΔGobs CAI [3] [kcal/mol]	ΔGintr CAXIV [5] [kcal/mol]	ΔGobs CAXIV [5] [kcal/mol]	ΔGintr CAVI [6] [kcal/mol]	ΔGobs CAVI [6] [kcal/mol]	ΔGintr CAVA [7] [kcal/mol]	ΔGobs CAVA [7] [kcal/mol]	ΔGintr CAVB [8] [kcal/mol]	ΔGobs CAVB [8] [kcal/mol]	ΔGintr CAIX [11] [kcal/mol]	ΔGobs CAIX [11] [kcal/mol]	ΔGintr CAII [13] [kcal/mol]	ΔGobs CAII [13] [kcal/mol]	ΔGobs CAVII [16] [kcal/mol]	ΔGobs CAXIII [17] [kcal/mol]	ΔGintr CAVII [16] [kcal/mol]	other results
COC(=O)c1cc(S(N)(=O)=O)c(SC2CCCCC2)cc1Cl [Compound 3b, Methyl 2-chloro-4-(cyclohexylsulfanyl)-5-sulfamoylbenzoate]	-8.53	0.3% and 0.25%	9.6	-10.5	-6.79	-15.5	-11.2	-14.4	-9.2	-9.61	-5.66	-11.1	-7.03	-17.9	-13.5	-13.6	-9.37	-9.68	-10.3		-TΔSintr CAIX ([4]; intrinsic, 37 °C): -10.8 kcal/mol; ΔHintr CAIX [4, 23]: -7.15 kcal/mol; ΔHobs CAIX [4, 24]: -2.51 kcal/mol; ΔGintr mimic-CAIX [9]: -16.1 kcal/mol; ΔGintr CAIV [10]: -13.6 kcal/mol; ΔGobs CAIV [10]: -9.08 kcal/mol; binding affinity, times stronger to CAIX than CAXII [11]: 150 times; native CAIX bound more strongly than mimic-CAIX [11]: 10 fold; -TΔSintr CAXII [12]: -3.42 kcal/mol; ΔHintr CAXII [12]: -11.5 kcal/mol; ΔHobs CAXII [12]: -6.96 kcal/mol; ΔHintr mimic CAIX ([14]; intrinsic, 37 °C, calculated using protonation enthalpy of CAII): -7.46 kcal/mol; ΔHobs mimic CAIX [14, 24]: -2.39 kcal/mol; ΔGintr CAIII [15]: -10.8 kcal/mol; ΔGobs CAIII [15]: -6.24 kcal/mol; ΔGintr CAXIII [17]: -14.1 kcal/mol
COC(=O)c1cc(S(N)(=O)=O)c(SCCc2ccccc2)cc1Cl [Compound 3d, Methyl 2-chloro-4-[(2-phenylethyl)sulfanyl]-5-sulfamoylbenzoate]	-9.8	0.3% and 0.25%	9.6	-10.7	-6.93	-14.7	-10.4	-14	-8.8	-9.54	-5.59	-11.2	-7.1	-15.7	-11.2	-13.8	-9.61	-9.94	-10.5	-14.2	ΔHintr CAXII [12]: -12 kcal/mol; ΔHobs CAXII [12]: -6.19 kcal/mol
COC(=O)c1cc(S(N)(=O)=O)c(Cl)cc1SC1CCCCC1 [Compound 5b, Methyl 4-chloro-2-cyclohexylsulfanyl-5-sulfamoylbenzoate]	-7.96	0.4%	9.4	-12.6	-9.2	-15.8	-11.8		-9.49	-11.3	-7.65	-15.5	-11.7	-15.7	-11.5	-14.8	-10.9	-10.9	-11.4	-14.9	ΔGintr CAIV [10]: -14.4 kcal/mol; ΔGobs CAIV [10]: -10.2 kcal/mol; -TΔSintr CAXII [12]: -4.76 kcal/mol; ΔHintr CAXII [12]: -10.4 kcal/mol; ΔHobs CAXII [12]: -6.5 kcal/mol; N (ITC, observed fitted parameter) CAXII ([12]; single repeats, pH 7.0, 37 °C, Figure S8): 1.0 and 1.1; ΔGobs CAIII [15]: ≥ -5.26 kcal/mol; ΔGintr CAXIII [17]: -14.8 kcal/mol
COC(=O)c1cc(S(N)(=O)=O)c(S(=O)(=O)Cc2ccccc2)cc1Cl [Compound 7c, Methyl 4-benzylsulfonyl-2-chloro-5-sulfamoylbenzoate]		0.2%		≥ -9.27	≥ -5.26	-11.9	-7.34	-10.9	-5.5	≥ -9.46	≥ -5.26	≥ -9.66	≥ -5.26	-13.4	-8.65	≥ -9.78	≥ -5.28	≥ -5.26	-5.47	≥ -9.8	solubility [18]: LS; ΔGintr CAXII [19]: -11.9 kcal/mol; ΔGobs CAXII [19]: -7.34 kcal/mol; ΔGintr CAIV [10]: -12.2 kcal/mol; ΔGobs CAIV [10]: -7.43 kcal/mol; ΔGintr CAIII [15]: ≥ -10.1 kcal/mol; ΔGobs CAIII [15]: ≥ -5.26 kcal/mol; ΔGintr CAXIII [17]: -9.51 kcal/mol
COC(=O)c1cc(S(N)(=O)=O)c(S(=O)(=O)CCc2ccccc2)cc1Cl [Compound 7d, Methyl 2-chloro-4-(2-phenylethylsulfonyl)-5-sulfamoylbenzoate]		0.2%		-9.27		≥ -9.8	≥ -5.26	-10.9	-5.5	≥ -9.46	≥ -5.26	≥ -9.66	≥ -5.26	-12.1	-7.34	≥ -9.73	≥ -5.26	≥ -5.26	-6.6	≥ -9.8	solubility [18]: LS; ΔGintr CAXII [19]: -10.9 kcal/mol; ΔGobs CAXII [19]: -6.33 kcal/mol; ΔGintr CAIV [10]: ≥ -9.99 kcal/mol; ΔGobs CAIV [10]: ≥ -5.26 kcal/mol; ΔGintr CAIII [15]: ≥ -10.1 kcal/mol; ΔGobs CAIII [15]: ≥ -5.26 kcal/mol; ΔGintr CAXIII [17]: -10.6 kcal/mol
COC(=O)c1cc(S(N)(=O)=O)c(Cl)cc1S(=O)(=O)c1ccccc1 [Compound 9a, Methyl 2-(benzenesulfonyl)-4-chloro-5-sulfamoylbenzoate]	-6.91	5.9% and 5.94%	8.2	-11.5	-9.7		-12.9	-13.5	-10.3			-13.3	-11.2		-12	-15.1	-12.8	-13.3	-11.7	-15.6	ΔHintr CAI [20, 23]: -9.49 kcal/mol; ΔHobs CAI [20, 24]: -4.25 kcal/mol; -TΔSintr CAXII [12]: -4.11 kcal/mol; ΔHintr CAXII [12]: -9.08 kcal/mol; ΔHobs CAXII [12]: -6.55 kcal/mol; binding to CAII stronger than to CAXII (factor) [21]: 26 fold; ΔHintr CAII [22, 23]: -5.57 kcal/mol; ΔHobs CAII [22, 24]: -2.46 kcal/mol
